Reference: patent US10683293B2, “Optionally fused heterocyclyl-substituted derivatives of pyrimidine useful for the treatment of inflammatory, metabolic, oncologic and autoimmune diseases” (NUEVOLUTION A/S, priority 2014, dated 2020)
pIC50: −log10 of the molar value.

Columns and labels:
[1] = target: T1, human RORγt (Ligand Binding Domain) (Homo sapiens, UniProt P51449); test: Fluorescence Polarization (FP) Assay; conditions: 100 nM human RORγt LBD, 25 nM TAMRA probe, values are activity range bounds
T1 construct: purchased Crelux (Planegg, Germany) batch no PC5032-1
T1 sequence (P51449 269-508 limits assumed): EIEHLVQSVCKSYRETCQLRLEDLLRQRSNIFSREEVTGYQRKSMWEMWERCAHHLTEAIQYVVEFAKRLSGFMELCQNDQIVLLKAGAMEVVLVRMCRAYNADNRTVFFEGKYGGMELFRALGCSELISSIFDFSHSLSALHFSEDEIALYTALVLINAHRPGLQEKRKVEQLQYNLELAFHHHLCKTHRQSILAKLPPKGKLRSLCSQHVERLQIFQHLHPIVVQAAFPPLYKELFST
Method in brief: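 In vitro fluorescence polarization binding assay on the RORγt ligand-binding pocket. A TAMRA-labelled RORγt ligand probe (MW 910 g/mol) was used, with DMSO as negative control.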

[2] = target: T2, ligand binding domain of human RORγ (Homo sapiens, UniProt P51449); test: RORγ Reporter Assay (Gal4); assay type: cell-based; conditions: for inhibition at 1 µM: HEK-293T, 1 μM test compound, HEK293t RORγ reporter cells, 24 hour, read-out: Gal4 activity range @ 1 μM (% inhibition); for Gal4 activity range @ 0.1 μM (% inhibition): RORγ Reporter Assay (Gal4), HEK293t reporter cells, compound at 0.1 μM, values are activity range bounds
T2 construct: host or cells: HEK293t
T2 sequence (P51449 269-508 limits assumed): T1 sequence (P51449 269-508 limits assumed)
Protocol: The activity of the compounds was evaluated using a Fluorescence Polarization (FP) Assay and, RORγ Reporter assay (also referred to as Gal4 assay). The FP assay is an in vitro assay monitoring binding within the ligand binding pocket. The RORγ and the Th17 assays (another suitable assay) are both cell-based assays monitoring functional activity of the compound assayed.
RORγ Reporter Assay (Gal4)
Cell-based RORγ functional assays were performed using a commercially available assay product (INDIGO Biosciences, State College, Pa., USA; product # IB04001). The RORγ reporter cells are HEK293t cells transfected with one vector that provides high level constitutive expression of a hybrid protein comprised of the yeast Gal4-DNA binding domain fused to the ligand binding domain of human RORγ, and a second vector comprising the firefly luciferase cDNA functionally linked to the upstream activation sequence (UAS) of yeast Gal4. A suspension of RORγ Reporter Cells was prepared using the protocol and culture medium provided in the kit product, and 100 μl of the Reporter Cell suspension was then dispensed into wells of a white, collagen-treated, 96-well assay plate. Concentrated stocks of test compounds were prepared in DMSO, then further diluted using media provided in the kit to generate ‘2×-concentration’ treatment media. 100 μl of medium for each respective treatment concentration dispensed into triplicate assay wells, thereby combining with the reporter cells. All media formulations contained 10% charcoal stripped Fetal Bovine Serum, but are otherwise proprietary to INDIGO Biosciences. Final treatment concentrations for each test compound were 1,000 nM and 100 nM, each with 0.1% residual DMSO. Separate control treatments were media supplemented with vehicle only (0.1% DMSO) to determine the constitutive level of RORγ activity in the reporter cells, and the reference inverse-agonist ursolic acid (f.c. 6,000 nM to 8.2 nM in 3-fold decrements) to establish a positive control inverse-agonist dose response. Assay plates were placed in a 37° C., 5% CO2, 85% humidity incubator for 24 hour. Treatment media were then discarded, 100 μl of luciferase detection reagent was added to each well, and relative light units (RLUs) were quantified from each assay well using a plate reading luminometer. Values of average RLU+/−standard deviation were computed for all treatment sets, followed by the calculations of fold-reduction: [Average RLUVehicle/Average RLUTest Cmpd]. Percent-reduction of RORγ activity in response to respective test compound treatments was calculated: [100*(1−[Ave RLUTest Cmpd/Ave RLUVehicle)] where the theoretical minimum reduction (0% reduction) derives from Vehicle treatment only, no treatment compound. In some aspects it may be of interest to provide compounds with selective modulation of RORγ for example compounds that are selective to RORγ over RORα, compounds that are selective for RORγ versus RORPβ, and compounds that are selective for RORγ versus BOTH RORα and RORPβ. It may also be of interest to provide compounds that are selective for RORγ versus further nuclear hormone receptors such as CAR1, FXR, GR, LXRα, LXRβ, PPARα, PXR, RARα, RXRα, TRα, VDR. It is apparent to those skilled in the art that these nuclear hormone receptors are merely examples, and that selectivity against other nuclear receptors may also be of interest. It may for example be of interest to provide compounds that modulate RORγ and one or more further nuclear hormone receptors, as well as compounds that modulate both RORγ and RORα, or RORγ and RORβ. It may also be of interest to provide compounds that modulate RORγ and BOTH RORα and RORP, as well as compounds that modulate both RORγ and one or more further nuclear hormone receptors such as CAR1, FXR, GR, LXRα, LXRβ, PPARα, PXR, RARα, RXRα, TRα, VDR. It is apparent to those skilled in the art that these nuclear hormone receptors are merely examples, and that modulation of even other nuclear receptors may also be of interest. […]

Row | pIC50 [1] | inhibition at 1 µM [2] | Gal4 activity range @ 0.1 μM (% inhibition) [2] | Compound
1 | > 6.00 | > 80% | >20 % inhibition | Cc1ccc(CNc2ncnc(N(Cc3ccc(C(F)(F)F)cc3)C3CC3)c2F)cn1 [Example A1, N4-cyclopropyl-5-fluoro-N6-[(6-methyl-3-pyridyl)methyl]-N4-[[4-(trifluoromethyl)phenyl]methyl] pyrimidine-4,6-diamine]
2 | > 6.30 | > 80% | >80 % inhibition | NC(=O)Cc1ccc(CNc2ncnc(N(Cc3ccc(C(F)(F)F)cc3)C3CC3)c2F)cc1 [Example A2, 2-[4-[[[6-[cyclopropyl-[[4-(trifluoromethyl)phenyl]methyl]amino]-5-fluoro-pyrimidin-4-yl]amino]methyl]phenyl]acetamide]
3 | > 6.30 | > 80% | >50 % inhibition | CC(c1ccc(C(F)(F)F)cc1)N(c1ncnc(NCc2ccc(CC(N)=O)cc2)c1F)C1CC1 (stereo not drawn) [Example A3, 2-[4-[[[6-[cyclopropyl-[1-[4-(trifluoromethyl)phenyl]ethyl]amino]-5-fluoro-pyrimidin-4-yl]amino]methyl]phenyl]acetamide]
4 | > 5.70 | > 50% | >0 % inhibition | NC(=O)Cc1ccc(CNc2ncnc(N(Cc3ccc(C(F)(F)F)cc3)C3CCOC3)c2F)cc1 (stereo not drawn) [Example A4, 2-[4-[[[5-fluoro-6-[tetrahydrofuran-3-yl-[[4-(trifluoromethyl)phenyl]methyl]amino]pyrimidin-4-yl]amino]methyl]phenyl]acetamide]
5 | > 6.00 | > 80% | >20 % inhibition | OC1(CNc2ncnc(N(Cc3ccc(C(F)(F)F)cc3)C3CC3)c2F)CCOC1 (stereo not drawn) [Example A5, 3-[[[6-[cyclopropyl-[[4-(trifluoromethyl)phenyl]methyl]amino]-5-fluoro-pyrimidin-4-yl]amino]methyl]tetrahydrofuran-3-ol]
6 | > 6.30 | > 80% | >80 % inhibition | NC(=O)Cc1ccc(CNc2ncnc(N(Cc3ccc(OC(F)(F)F)cc3)C3CC3)c2F)cc1 [Example A6, 2-[4-[[[6-[cyclopropyl-[[4-(trifluoromethoxy)phenyl]methyl]amino]-5-fluoro-pyrimidin-4-yl]amino]methyl]phenyl]acetamide]
7 | > 6.30 | > 80% | >50 % inhibition | O=S1(=O)CCC(O)(CNc2ncnc(N(Cc3ccc(C(F)(F)F)cc3)C3CC3)c2F)CC1 [Example A8, 4-[[[6-[cyclopropyl-[[4-(trifluoromethyl)phenyl]methyl]amino]-5-fluoro-pyrimidin-4-yl]amino]methyl]-1,1-dioxo-thian-4-ol]
8 | > 6.30 | > 80% | >20 % inhibition | O=S(=O)(NC1CC1)c1ccc(CNc2ncnc(N(Cc3ccc(C(F)(F)F)cc3)C3CC3)c2F)cc1 [Example A9, N-cyclopropyl-4-[[[6-[cyclopropyl-[[4-(trifluoromethyl)phenyl]methyl]amino]-5-fluoro-pyrimidin-4-yl]amino]methyl]benzenesulfonamide]
9 | > 6.30 | > 80% | >50 % inhibition | CC(=O)N1CCC(CNc2ncnc(N(Cc3ccc(C(F)(F)F)cc3)C3CC3)c2F)CC1 [Example A11, 1-[4-[[[6-[cyclopropyl-[[4-(trifluoromethyl)phenyl]methyl]amino]-5-fluoro-pyrimidin-4-yl]amino]methyl]-1-piperidyl]ethanone]
10 | > 6.00 | > 80% | >20 % inhibition | Fc1c(NCC2CCOCC2)ncnc1N(Cc1ccc(C(F)(F)F)cc1)C1CC1 [Example A12, N4-cyclopropyl-5-fluoro-N6-(tetrahydropyran-4-ylmethyl)-N4-[[4-(trifluoromethyl)phenyl]methyl] pyrimidine-4,6-diamine]
11 | > 6.30 | > 80% | >20 % inhibition | NC(=O)Cc1ccc(CNc2ncnc(N(C3CC3)C(c3ccc(C(F)(F)F)cc3)C3CC3)c2F)cc1 (stereo not drawn) [Example A13, 2-[4-[[[6-[cyclopropyl-[cyclopropyl-[4-(trifluoromethyl)phenyl]methyl]amino]-5-fluoro-pyrimidin-4-yl]amino]methyl]phenyl]acetamide]
12 | > 6.30 | > 80% | >50 % inhibition | N#CCc1ccc(CNc2ncnc(N(Cc3ccc(C(F)(F)F)cc3)C3CC3)c2F)cc1 [Example A14, 2-[4-[[[6-[cyclopropyl-[[4-(trifluoromethyl)phenyl]methyl]amino]-5-fluoro-pyrimidin-4-yl]amino]methyl]phenyl]acetonitrile]
13 | > 6.30 | > 80% | >20 % inhibition | NC(=O)Cc1ccc(CNc2ncnc(N(Cc3ccc(C(F)(F)F)cc3)C3CCC3)c2F)cc1 [Example A15, 2-[4-[[[6-[cyclobutyl-[[4-(trifluoromethyl)phenyl]methyl]amino]-5-fluoro-pyrimidin-4-yl]amino]methyl]phenyl]acetamide]
14 | > 6.30 | > 20% | >0 % inhibition | COC(=O)CC(c1ccc(C(F)(F)F)cc1)N(c1ncnc(NCc2ccc(CC(N)=O)cc2)c1F)C1CC1 (stereo not drawn) [Example A16, methyl 3-[[6-[[4-(2-amino-2-oxo-ethyl)phenyl]methylamino]-5-fluoro-pyrimidin-4-yl]-cyclopropyl-amino]-3-[4-(trifluoromethyl)phenyl]propanoate]
15 | > 5.70 |  |  | O=C(O)CC1(Nc2ncnc(N(Cc3ccc(C(F)(F)F)cc3)C3CC3)c2F)CCOCC1 [Example A183, 2-[4-[[6-[cyclopropyl-[[4-(trifluoromethyl)phenyl]methyl]amino]-5-fluoro-pyrimidin-4-yl]amino]tetrahydropyran-4-yl]acetic acid]
16 | > 5.00 |  |  | O=C(O)C(CNc1ncnc(N(Cc2ccc(C(F)(F)F)cc2)C2CC2)c1F)C1CCOCC1 (stereo not drawn) [Example A184, 3-[[6-[cyclopropyl-[[4-(trifluoromethyl)phenyl]methyl]amino]-5-fluoro-pyrimidin-4-yl]amino]-2-tetrahydropyran-4-yl-propanoic acid]
17 | > 5.00 |  |  | O=C(O)C(CNc1ncnc(N(Cc2ccc(C(F)(F)F)cc2)C2CC2)c1F)CC1CCOCC1 (stereo not drawn) [Example A185, 2-[[[6-[cyclopropyl-[[4-(trifluoromethyl)phenyl]methyl]amino]-5-fluoro-pyrimidin-4-yl]amino]methyl]-3-tetrahydropyran-4-yl-propanoic acid]
